Measured values published in patent publication US4218456A, “1-(4-Fluorophenyl)-4-(1,2,3,6-tetrahydro-4-phenoxy-1-pyridinyl)-butanones” (Warner-Lambert Company, priority 1978, dated 1980).

System: dopamine receptor binding sites
Assay: 3H-Haloperidol Receptor Binding Assay (HRBA)
Details: at 10^-8 mol/L concentration in vitro
Source text: As with other known antipsychotics, the compounds of formula I readily displace ^3 H-haloperidol from dopamine receptor binding sites in the ^3 H-Haloperidol Receptor Binding Assay (HRBA). […] The HRBA screen is described by I. Creese, D. R. Burt and S. H. Snyder, Science, 192, 481 (1976) and P. Seeman, T. Lee, M. Chan-Wong and K. Wong, Nature, 261, 717 (1976).

O=C(CCCN1CC=C(Oc2ccc(F)cc2)CC1)c1ccc(F)cc1 [Example 9, 4-[4-(4-Fluorophenoxy)-1,2,3,6-tetrahydro-1-pyridinyl]-1-(4-fluorophenyl)-1-butanone(Z)-2-Butenedioate]
inhibition of 3H-haloperidol: 87%
